pIC50: −log10 of the molar value.
How the values were obtained:
Assay in all cases: cells
NB69 = format: functional, cell-based, Homo sapiens; conditions: Homo sapiens, NB69
Description: SANGER: Inhibition of human NB69 cell growth in a cell viability assay.

HDLM-2 = format: functional, cell-based, Homo sapiens; conditions: Homo sapiens, HDLM-2
Description: SANGER: Inhibition of human HDLM-2 cell growth in a cell viability assay.

NCI-N87 = format: functional, cell-based; conditions: Homo sapiens
Description: SANGER: Inhibition of human NCI-N87 cell growth in a cell viability assay.

KNS-42 = format: functional, cell-based; conditions: Homo sapiens
Description: SANGER: Inhibition of human KNS-42 cell growth in a cell viability assay.

NEC8 = format: functional, cell-based, Homo sapiens; conditions: Homo sapiens, NEC8
Description: SANGER: Inhibition of human NEC8 cell growth in a cell viability assay.

MC116 = format: functional, cell-based, Homo sapiens; conditions: Homo sapiens, MC116
Description: SANGER: Inhibition of human MC116 cell growth in a cell viability assay.

NCI-H82 = format: functional, cell-based, Homo sapiens; conditions: Homo sapiens, NCI-H82
Description: SANGER: Inhibition of human NCI-H82 cell growth in a cell viability assay.

NCI-H1155 = format: functional, cell-based, Homo sapiens; conditions: Homo sapiens, NCI-H1155
Description: SANGER: Inhibition of human NCI-H1155 cell growth in a cell viability assay.

EW-1 = format: functional, cell-based, Homo sapiens; conditions: Homo sapiens, EW-1
Description: SANGER: Inhibition of human EW-1 cell growth in a cell viability assay.

SJSA-1 = format: functional, cell-based, Homo sapiens; conditions: Homo sapiens, SJSA-1
Description: SANGER: Inhibition of human SJSA-1 cell growth in a cell viability assay.

NCI-H209 = format: functional, cell-based, Homo sapiens; conditions: Homo sapiens, NCI-H209
Description: SANGER: Inhibition of human NCI-H209 cell growth in a cell viability assay.

JAR = format: functional, cell-based, Homo sapiens; conditions: Homo sapiens, JAR
Description: SANGER: Inhibition of human JAR cell growth in a cell viability assay.

A498 = format: functional, cell-based, Homo sapiens; conditions: Homo sapiens, A498
Description: SANGER: Inhibition of human A498 cell growth in a cell viability assay.

L-428 = format: functional, cell-based, Homo sapiens; conditions: Homo sapiens, L-428
Description: SANGER: Inhibition of human L-428 cell growth in a cell viability assay.

SK-N-FI = format: functional, cell-based, Homo sapiens; conditions: Homo sapiens, SK-N-FI
Description: SANGER: Inhibition of human SK-N-FI cell growth in a cell viability assay.

K5 = format: functional, cell-based, Homo sapiens; conditions: Homo sapiens, K5
Description: SANGER: Inhibition of human K5 cell growth in a cell viability assay.

MSTO-211H = format: functional, cell-based, Homo sapiens; conditions: Homo sapiens, MSTO-211H
Description: SANGER: Inhibition of human MSTO-211H cell growth in a cell viability assay.

TE-10 = format: functional, cell-based, Homo sapiens; conditions: Homo sapiens, TE-10
Description: SANGER: Inhibition of human TE-10 cell growth in a cell viability assay.

SNU-C2B = format: functional, cell-based; conditions: Homo sapiens
Description: SANGER: Inhibition of human SNU-C2B cell growth in a cell viability assay.

UACC-257 = format: functional, cell-based, Homo sapiens; conditions: Homo sapiens, UACC-257
Description: SANGER: Inhibition of human UACC-257 cell growth in a cell viability assay.

EM-2 = format: functional, cell-based, Homo sapiens; conditions: Homo sapiens, EM-2
Description: SANGER: Inhibition of human EM-2 cell growth in a cell viability assay.

HCE-4 = format: functional, cell-based; conditions: Homo sapiens
Description: SANGER: Inhibition of human HCE-4 cell growth in a cell viability assay.

A388 = format: functional, cell-based; conditions: Homo sapiens
Description: SANGER: Inhibition of human A388 cell growth in a cell viability assay.

NB6 = format: functional, cell-based, Homo sapiens; conditions: Homo sapiens, NB6
Description: SANGER: Inhibition of human NB6 cell growth in a cell viability assay.

NCI-H720 = format: functional, cell-based, Homo sapiens; conditions: Homo sapiens, NCI-H720
Description: SANGER: Inhibition of human NCI-H720 cell growth in a cell viability assay.

NB13 = format: functional, cell-based, Homo sapiens; conditions: Homo sapiens, NB13
Description: SANGER: Inhibition of human NB13 cell growth in a cell viability assay.

NCI-H1355 = format: functional, cell-based, Homo sapiens; conditions: Homo sapiens, NCI-H1355
Description: SANGER: Inhibition of human NCI-H1355 cell growth in a cell viability assay.

IST-MES1 = format: functional, cell-based, Homo sapiens; conditions: Homo sapiens, IST-MES1
Description: SANGER: Inhibition of human IST-MES1 cell growth in a cell viability assay.

MV4-11 = format: functional, cell-based, Homo sapiens, MV-4-11; conditions: Homo sapiens, MV4-11
Description: SANGER: Inhibition of human MV-4-11 cell growth in a cell viability assay.

BB30-HNC = format: functional, cell-based, Homo sapiens; conditions: Homo sapiens, BB30-HNC
Description: SANGER: Inhibition of human BB30-HNC cell growth in a cell viability assay.

A253 cell line = format: functional, cell-based, Homo sapiens; conditions: Homo sapiens, A253
Description: SANGER: Inhibition of human A253 cell growth in a cell viability assay.

MZ2-MEL = format: functional, cell-based, Homo sapiens; conditions: Homo sapiens, MZ2-MEL
Description: SANGER: Inhibition of human MZ2-MEL cell growth in a cell viability assay.

DU-4475 = format: functional, cell-based, Homo sapiens; conditions: Homo sapiens, DU-4475
Description: SANGER: Inhibition of human DU-4475 cell growth in a cell viability assay.

SNU-5 = format: functional, cell-based, Homo sapiens; conditions: Homo sapiens, SNU-5
Description: SANGER: Inhibition of human NCI-SNU-5 cell growth in a cell viability assay.

DOHH-2 = format: functional, cell-based, Homo sapiens; conditions: Homo sapiens, DOHH-2
Description: SANGER: Inhibition of human DOHH-2 cell growth in a cell viability assay.

KP-N-YS = format: functional, cell-based, Homo sapiens; conditions: Homo sapiens, KP-N-YS
Description: SANGER: Inhibition of human KP-N-YS cell growth in a cell viability assay.

SW 954 = format: functional, cell-based, Homo sapiens; conditions: Homo sapiens, SW 954
Description: SANGER: Inhibition of human SW954 cell growth in a cell viability assay.

C2BBe1 = format: functional, cell-based, Homo sapiens; conditions: Homo sapiens, C2BBe1
Description: SANGER: Inhibition of human C2BBe1 cell growth in a cell viability assay.

U-87 MG = format: functional, cell-based, Homo sapiens, U-87MG ATCC; conditions: Homo sapiens, U-87 MG
Description: SANGER: Inhibition of human U-87-MG cell growth in a cell viability assay.

SK-NEP-1 = format: functional, cell-based, Homo sapiens; conditions: Homo sapiens, SK-NEP-1
Description: SANGER: Inhibition of human SK-NEP-1 cell growth in a cell viability assay.

TGBC24TKB = format: functional, cell-based; conditions: Homo sapiens
Description: SANGER: Inhibition of human TGBC24TKB cell growth in a cell viability assay.

CW-2 = format: functional, cell-based, Homo sapiens; conditions: Homo sapiens, CW-2
Description: SANGER: Inhibition of human CW-2 cell growth in a cell viability assay.

EW-3 = format: functional, cell-based, Homo sapiens; conditions: Homo sapiens, EW-3
Description: SANGER: Inhibition of human EW-3 cell growth in a cell viability assay.

BE-13 = format: functional, cell-based, Homo sapiens; conditions: Homo sapiens, BE-13
Description: SANGER: Inhibition of human BE-13 cell growth in a cell viability assay.

DMS-114 = format: functional, cell-based, Homo sapiens; conditions: Homo sapiens, DMS-114
SW982 = format: functional, cell-based; conditions: Homo sapiens
Description: SANGER: Inhibition of human SW982 cell growth in a cell viability assay.

ES3 = format: functional, cell-based, Homo sapiens; conditions: Homo sapiens, ES3
Description: SANGER: Inhibition of human ES3 cell growth in a cell viability assay.

HCC2218 = format: functional, cell-based, Homo sapiens; conditions: Homo sapiens, HCC2218
Description: SANGER: Inhibition of human HCC2218 cell growth in a cell viability assay.

GCIY = format: functional, cell-based, Homo sapiens; conditions: Homo sapiens, GCIY
Description: SANGER: Inhibition of human GCIY cell growth in a cell viability assay.

BB65-RCC = format: functional, cell-based, Homo sapiens; conditions: Homo sapiens, BB65-RCC
Description: SANGER: Inhibition of human BB65-RCC cell growth in a cell viability assay.

CGTH-W-1 = format: functional, cell-based, Homo sapiens; conditions: Homo sapiens, CGTH-W-1
Description: SANGER: Inhibition of human CGTH-W-1 cell growth in a cell viability assay.

## Cc1ccc(-n2nc(C(C)(C)C)cc2NC(=O)Nc2ccc(OCCN3CCOCC3)c3ccccc23)cc1 [DORAMAPIMOD]
NB69
  pIC50: < 5.00
HDLM-2
  pIC50: < 5.00
NCI-N87
  pIC50: < 5.00
KNS-42
  pIC50: < 5.00
NEC8
  pIC50: < 5.00
MC116
  pIC50: < 5.00
NCI-H82
  pIC50: < 5.00
NCI-H1155
  pIC50: < 5.00
EW-1
  pIC50: < 5.00
SJSA-1
  pIC50: < 5.00
NCI-H209
  pIC50: < 5.00
JAR
  pIC50: < 5.00
A498
  pIC50: < 5.00
L-428
  pIC50: < 5.00
SK-N-FI
  pIC50: < 5.00
K5
  pIC50: < 5.00
MSTO-211H
  pIC50: < 5.00
TE-10
  pIC50: < 5.00
SNU-C2B
  pIC50: < 5.00
UACC-257
  pIC50: < 5.00
EM-2
  pIC50: < 5.00
HCE-4
  pIC50: < 5.00
A388
  pIC50: < 5.00
NB6
  pIC50: < 5.00
NCI-H720
  pIC50: < 5.00
NB13
  pIC50: < 5.00
NCI-H1355
  pIC50: < 5.00
IST-MES1
  pIC50: 5.10
MV4-11
  pIC50: < 5.00
BB30-HNC
  pIC50: < 5.00
A253 cell line
  pIC50: < 5.00
MZ2-MEL
  pIC50: < 5.00
DU-4475
  pIC50: < 5.00
SNU-5
  pIC50: < 5.00
DOHH-2
  pIC50: < 5.00
KP-N-YS
  pIC50: < 5.00
SW 954
  pIC50: < 5.00
C2BBe1
  pIC50: < 5.00
U-87 MG
  pIC50: < 5.00
SK-NEP-1
  pIC50: < 5.00
TGBC24TKB
  pIC50: < 5.00
CW-2
  pIC50: < 5.00
EW-3
  pIC50: < 5.00
BE-13
  pIC50: < 5.00
DMS-114
  pIC50: < 5.00
SW982
  pIC50: < 5.00
ES3
  pIC50: < 5.00
HCC2218
  pIC50: < 5.00
GCIY
  pIC50: < 5.00
BB65-RCC
  pIC50: < 5.00
CGTH-W-1
  pIC50: < 5.00

## COC(=O)[C@H](CCSC)NC(=O)c1ccc(NC[C@@H](N)CS)cc1-c1ccccc1
NB69
  pIC50: < 5.99
HDLM-2
  pIC50: < 5.99
NCI-N87
  pIC50: < 5.99
KNS-42
  pIC50: < 5.99
NEC8
  pIC50: < 5.99
MC116
  pIC50: < 5.99
NCI-H82
  pIC50: < 5.99
NCI-H1155
  pIC50: < 5.99
EW-1
  pIC50: < 5.99
SJSA-1
  pIC50: < 5.99
NCI-H209
  pIC50: < 5.99
JAR
  pIC50: < 5.99
A498
  pIC50: < 5.99
L-428
  pIC50: < 5.99
SK-N-FI
  pIC50: < 5.99
K5
  pIC50: < 5.99
MSTO-211H
  pIC50: < 5.99
TE-10
  pIC50: < 5.99
SNU-C2B
  pIC50: < 5.99
UACC-257
  pIC50: < 5.99
EM-2
  pIC50: < 5.99
HCE-4
  pIC50: < 5.99
A388
  pIC50: < 5.99
NB6
  pIC50: < 5.99
NCI-H720
  pIC50: < 5.99
NB13
  pIC50: < 5.99
NCI-H1355
  pIC50: < 5.99
IST-MES1
  pIC50: < 5.99
MV4-11
  pIC50: < 5.99
BB30-HNC
  pIC50: < 5.99
A253 cell line
  pIC50: < 5.99
MZ2-MEL
  pIC50: < 5.99
DU-4475
  pIC50: < 5.99
SNU-5
  pIC50: < 5.99
DOHH-2
  pIC50: < 5.99
KP-N-YS
  pIC50: < 5.99
SW 954
  pIC50: < 5.99
C2BBe1
  pIC50: < 5.99
U-87 MG
  pIC50: < 5.99
SK-NEP-1
  pIC50: < 5.99
TGBC24TKB
  pIC50: < 5.99
CW-2
  pIC50: < 5.99
EW-3
  pIC50: < 5.99
BE-13
  pIC50: < 5.99
DMS-114
  pIC50: < 5.99
SW982
  pIC50: < 5.99
ES3
  pIC50: < 5.99
HCC2218
  pIC50: < 5.99
GCIY
  pIC50: < 5.99
BB65-RCC
  pIC50: < 5.99
CGTH-W-1
  pIC50: < 5.99

## C/C(=C\c1csc(C)n1)[C@@H]1C[C@@H]2O[C@]2(C)CCC[C@H](C)[C@H](O)[C@@H](C)C(=O)C(C)(C)[C@@H](O)CC(=O)O1 [PATUPILONE]
NB69
  pIC50: 8.09
HDLM-2
  pIC50: 7.71
NCI-N87
  pIC50: 7.52
KNS-42
  pIC50: 8.41
NEC8
  pIC50: 8.45
MC116
  pIC50: 8.41
NCI-H82
  pIC50: < 7.49
NCI-H1155
  pIC50: < 7.49
EW-1
  pIC50: 8.72
SJSA-1
  pIC50: 8.68
NCI-H209
  pIC50: 7.68
JAR
  pIC50: < 7.49
A498
  pIC50: < 7.49
L-428
  pIC50: < 7.49
SK-N-FI
  pIC50: < 7.49
K5
  pIC50: 8.25
MSTO-211H
  pIC50: < 7.49
TE-10
  pIC50: 9.14
SNU-C2B
  pIC50: 8.37
UACC-257
  pIC50: 7.53
EM-2
  pIC50: < 7.49
HCE-4
  pIC50: 8.88
A388
  pIC50: 9.03
NB6
  pIC50: 7.76
NCI-H720
  pIC50: < 7.49
NB13
  pIC50: 9.35
NCI-H1355
  pIC50: 9.04
IST-MES1
  pIC50: < 7.49
MV4-11
  pIC50: 8.77
BB30-HNC
  pIC50: 9.70
A253 cell line
  pIC50: 7.99
MZ2-MEL
  pIC50: 8.67
DU-4475
  pIC50: 8.62
SNU-5
  pIC50: 7.52
DOHH-2
  pIC50: 8.08
KP-N-YS
  pIC50: 8.41
SW 954
  pIC50: 9.36
C2BBe1
  pIC50: < 7.49
U-87 MG
  pIC50: 7.66
SK-NEP-1
  pIC50: 8.00
TGBC24TKB
  pIC50: 8.56
CW-2
  pIC50: < 7.49
EW-3
  pIC50: < 7.49
BE-13
  pIC50: 8.14
DMS-114
  pIC50: < 7.49
SW982
  pIC50: 9.00
ES3
  pIC50: 7.82
HCC2218
  pIC50: 7.51
GCIY
  pIC50: 8.18
BB65-RCC
  pIC50: 9.20
CGTH-W-1
  pIC50: 8.55

## CCCCCCCCCCCC1=C(O)C(=O)C=C(O)C1=O [EMBELIN]
NB69
  pIC50: < 4.49
HDLM-2
  pIC50: 4.76
NCI-N87
  pIC50: < 4.49
KNS-42
  pIC50: < 4.49
NEC8
  pIC50: 5.16
MC116
  pIC50: 5.55
NCI-H82
  pIC50: < 4.49
NCI-H1155
  pIC50: < 4.49
EW-1
  pIC50: 4.54
SJSA-1
  pIC50: 5.37
NCI-H209
  pIC50: < 4.49
JAR
  pIC50: < 4.49
A498
  pIC50: < 4.49
L-428
  pIC50: 5.27
SK-N-FI
  pIC50: < 4.49
K5
  pIC50: < 4.49
MSTO-211H
  pIC50: < 4.49
TE-10
  pIC50: 4.88
SNU-C2B
  pIC50: < 4.49
UACC-257
  pIC50: < 4.49
EM-2
  pIC50: < 4.49
HCE-4
  pIC50: 5.07
A388
  pIC50: 5.17
NB6
  pIC50: < 4.49
NCI-H720
  pIC50: < 4.49
NB13
  pIC50: 4.78
NCI-H1355
  pIC50: 5.00
IST-MES1
  pIC50: < 4.49
MV4-11
  pIC50: < 4.49
BB30-HNC
  pIC50: 5.30
A253 cell line
  pIC50: 5.11
MZ2-MEL
  pIC50: 5.20
DU-4475
  pIC50: 4.88
SNU-5
  pIC50: < 4.49
DOHH-2
  pIC50: 5.12
KP-N-YS
  pIC50: < 4.49
SW 954
  pIC50: 4.51
C2BBe1
  pIC50: 4.86
U-87 MG
  pIC50: < 4.49
SK-NEP-1
  pIC50: 4.82
TGBC24TKB
  pIC50: 4.58
CW-2
  pIC50: < 4.49
EW-3
  pIC50: < 4.49
BE-13
  pIC50: 4.64
DMS-114
  pIC50: < 4.49
SW982
  pIC50: 5.13
ES3
  pIC50: 4.81
HCC2218
  pIC50: 4.88
GCIY
  pIC50: 4.99
BB65-RCC
  pIC50: 4.94
CGTH-W-1
  pIC50: 4.78
